Marks after values point to notes of the source that are not given here.
Key:
[1] = test system: CPA-CLP sepsis mouse model; assay: Effects of LPC, LPC isomers, Xigris and DW286aa on mortalities/survivabilities in CPA-CLP sepsis mouse model (SEP009); single i.v. 6 hrs after CLP; type: in vivo; conditions: LPC, LPC18:0, LPC18:1, LPA 5 mpk, Xigris 0.4 mpk, DW286aa 10 mpk
Method: (§1) CPA is well known as an immunosuppressive agent. […] Then, the abdomen was closed following the general procedure.
(§2) Then, body weight and mortality changes were observed.
In the Sham and CLP control groups, 10 ml/kg of only sterile physiological saline was single intravenously dosed.

CPA-CLP mice = assay: Mortality of CPA-CLP mice, LPC and DW286AA alone or combined (Example 9); s.c. 4 times 12-hr intervals from 6 hrs after CLP; type: in vivo, ICR mice; conditions: for Survival rate: LPC 1, DW286 0.5, Mix 0.75 mg/kg; for survival rates (survivors/total in brackets), Table 13: mg/kg: LPC 1, LPC + DW286 0.5 + 0.25, DW286/LPC 0.5/1.0, LPC/DW286 1.0/0.5, DW286 0.5
Excerpt: as §1

[2] = Body weight of CPA-CLP mice (Example 9); conditions: LPC 1, DW286 0.5, Mix 0.75 mg/kg
Method: In CPA-CLP model, body weight and mortalities were measured once a day for 5 days with automatic electronic balances (Sartorius Co., Ltd., USA), once a day for 2 days in CPA-treated model. All animals were overnight fasted at CPA dosing, CLP or initial dosing to reduce differences from feeding. In addition, body weight gains were calculated as follows:
CPA-CLP Model: Body weight at sacrifice—at CLP(5 days)
Then, mortalities, changes in thymus and spleen weights, changes in white blood cell (WBC) number, and changes in thymic and splenic CD3+, CD4+, CD8+, and TNF-α+ cell numbers, were evaluated together with changes in bone marrow polychromatic erythrocytes contain micronuclei (MNPCE) number.
(§3) Appropriate doses of candidate materials were dissolved in 5% human serum albumin, and subcutaneously dosed at 10 ml/kg (of body weight), 4 times 12-hr intervals from 6 hrs after CLP or 24 hrs after last CPA-dosing, respectively. In the INTACT, CPA, or CPA-CLP control groups, an equal volume of 5% human serum albumin was dosed by the same procedure.

[3] = test system: bone marrow polychromatic erythrocytes; assay: Bone marrow MNPCE and PCE/(PCE+NCE) in CPA-treated mice; conditions: LPC 1, DW286 0.5, Mix 0.75 mg/kg
Method: In Intact control animals, equal volume of saline was only dosed instead of CPA with same methods.
In brief, bone marrow cells were collected from aforementioned femur in 3 ml of inactivated fetal bovine serum (GIBCO BRL, USA), centrifuged, and smeared on slide. Preparations were dried, and fixed by submerging in absolute methanol (for 10˜20 min). Fixed slides were stained as follow:
Slides were randomly coded and examined under×1000 magnification by two different experts. Small round or oval shaped bodies, size of which ranging about ⅕ to 1/20 of diameter of PCE, were counted as micronuclei. Attention was given to discriminate micronuclei from artifacts. Results were expressed as the number of MNPCEs in 1000 PCEs. Mean number of MNPCE±S.D. was calculated for each treatment group.
as §3

blood WBC = assay: Blood WBC numbers and differential counts in CPA-treated mice; type: in vivo, ICR mice; conditions: LPC 1, DW286 0.5, Mix 0.75 mg/kg
Method: Blood were collected at sacrifice of CPA-treated model from vena cava and total blood leukocyte numbers were calculated using counting chamber, diluting pipette and Türk solution as dilution solution. All numbers were calculated as ×10^3/mm^3. In addition, cell numbers of lymphocytes, eosinophils, neutrophils, monocytes and basophils were calculated among 100 total leukocytes in smear blood samples stained with Giemsa.

[4] = test system: CPA-induced immunosuppressive mice; assay: Thymus and spleen organ weights in CPA-treated mice; type: in vivo, ICR mice; conditions: LPC 1, DW286 0.5, Mix 0.75 mg/kg
Method: At sacrifice of CPA-treated model, the wet-weights of spleen and thymus were measured and regarded as absolute weight and then relative organ weight (% of body weight) was calculated as follow:
=[(Absolute organ weights/Body weight at sacrifice individual)×100]

[5] = test system: CPA-CLP sepsis mouse model; assay: Combination effects of LPC and antibiotics (colistin, tobramycin, fusidin) in CPA-CLP sepsis mouse model (SEP013); single i.v. 6 hrs after CLP; type: in vivo, ICR mice; conditions: mpk: LPC 5, DW286aa 5, Colistin 5, Tobra 4, Fusidin 80, LPC + Colistin 5 + 5, LPC + Tobra 5 + 4, LPC + Fusidin 5 + 80
Excerpt: as §1, §2

In the case of Lysophosphatidylcholine [LPC], the Mortalities ([1]; 1st CPA treat) is reported as 0, the survivabilities ([1]; 1st CPA treat) is reported as 100% and the Mortalities ([1]; 2nd CPA treat) is reported as 0. The survivabilities ([1]; 2nd CPA treat) was 100%, the Mortalities ([1]; At CLP (day 0)) was 0 and the survivabilities ([1]; At CLP (day 0)) was 100%. It also gave a Mortalities ([1]; Day 1) of 1, a survivabilities ([1]; Day 1) of 90% and a Mortalities ([1]; Day 2) of 3. For the same substance, the survivabilities ([1]; Day 2) was 60%, the Mortalities ([1]; Day 3) was 1 and the survivabilities ([1]; Day 3) was 50%. It also gave a Mortalities ([1]; Day 4) of 1, a survivabilities ([1]; Day 4) of 40% and a Mortalities ([1]; Day 5) of 2. The survivabilities ([1]; Day 5) was 20%, the Mortalities ([1]; Day 6) was 0 and the survivabilities ([1]; Day 6) was 20%. It also gave a Mortalities ([1]; Day 7) of 1, a survivabilities ([1]; Day 7) of 10% and a Mortalities ([1]; Day 8) of 1. The survivabilities ([1]; Day 8) was 0%, the Mortalities ([1]; Day 9) was 0 and the survivabilities ([1]; Day 9) was 0%. It also gave a Mortalities ([1]; Day 10) of 0, a survivabilities ([1]; Day 10) of 0% and a Mortalities ([1]; Total) of 10. For the same substance, the survivabilities ([1]; Total) was 0%, the Survival rate (CPA-CLP mice; 1 day after CLP) was 55.55% and the “survival rates (survivors/total in brackets), Table 13” value (CPA-CLP mice; 1 day after dosing) was 56 (5/9). For the same substance, the Survival rate (CPA-CLP mice; 2 days after CLP) was 33.33%, the “survival rates (survivors/total in brackets), Table 13” value (CPA-CLP mice; 2 days after dosing) was 33 (3/9) and the Survival rate (CPA-CLP mice; 3 days after CLP) was 22.22%. For the same substance, the “survival rates (survivors/total in brackets), Table 13” value (CPA-CLP mice; 3 days after dosing) was 22 (2/9), the Survival rate (CPA-CLP mice; 4 days after CLP) was 0% and the “survival rates (survivors/total in brackets), Table 13” value (CPA-CLP mice; 4 days after dosing) was 0 (0/9). The Survival rate (CPA-CLP mice; 5 days after CLP) was 0%, the Survival rate (CPA-CLP mice; At CLP) was 100% and the “survival rates (survivors/total in brackets), Table 13” value (CPA-CLP mice; Dosing Day 0) was 100 (9/9). For the same substance, the Survival rate (CPA-CLP mice; Total) was 0%, the Body weight ([2]; 1 day after CLP) was 30.10 ± 1.23 g and the Body weight ([2]; 2 days after CLP) was 29.47 ± 1.46 g. It also gave a Body weight ([2]; 3 days after CLP) of 31.40 ± 0.28 g, a Body weight ([2]; At CLP (overnight fasted)) of 32.98 ± 1.65 g and a Body weight ([2]; At First CPA dosing (overnight fasted)) of 34.53 ± 1.24 g. For the same substance, the “MNPCE numbers, change compared to CPA control” value [3] was −14.34%, the “PCE/(PCE+NCE), change compared to CPA control” value [3] was −12.98% and the NCE ([3]; among 500 erythrocytes) was 377.11 ± 22.32. For the same substance, the PCE ([3]; among 500 erythrocytes) was 122.89 ± 22.32, the “PCE/(NCE + PCE)” value ([3]; among 500 erythrocytes) was 0.25 ± 0.04 and the “% MNPCE” value ([3]; among 1000 PCEs) was 2.46 ± 0.75 %. The “blood total WBC numbers, change compared to CPA control” value (blood WBC) was 25.00%, the “ratio of lymphocytes, change compared to CPA control” value (blood WBC) was 268.78% and the “ratio of monocytes, change compared to CPA control” value (blood WBC) was −85.27%. The “ratio of neutrophils, change compared to CPA control” value (blood WBC) was −51.07%, the “Total WBC” value (blood WBC; blood at sacrifice) was 0.58 ± 0.14 ×10^3/mm^3 and the “WBC differentials: Basophils” value (blood WBC; blood at sacrifice) was 2.33 ± 1.22*^,## %. The “WBC differentials: Eosinophils” value (blood WBC; blood at sacrifice) was 1.33 ± 1.12 %, the “WBC differentials: Lymphocytes” value (blood WBC; blood at sacrifice) was 70.22 ± 9.90 % and the “WBC differentials: Monocytes” value (blood WBC; blood at sacrifice) was 5.56 ± 3.13 %. For the same substance, the “WBC differentials: Neutrophils” value (blood WBC; blood at sacrifice) was 20.56 ± 8.76 %, the “Spleen weight, Relative” value ([4]; % of body weight at sacrifice) was 0.178 ± 0.018*^,# % and the “Thymus weight, Relative” value ([4]; % of body weight at sacrifice) was 0.099 ± 0.017 %. The “absolute splenic weights, change compared to CPA control” value [4] was 35.62%, the “absolute thymic weights, change compared to CPA control” value [4] was 13.31% and the “relative splenic weights, change compared to CPA control” value [4] was 40.69%. The “relative thymic weights, change compared to CPA control” value [4] was 17.56%, the “Spleen weight, Absolute” value ([4]; at sacrifice) was 0.066 ± 0.007*^,# g and the “Thymus weight, Absolute” value ([4]; at sacrifice) was 0.037 ± 0.007 g. For the same substance, the Mortalities ([5]; 1st CPA treat) was 0, the Survivalities ([5]; 1st CPA treat) was 100% and the Mortalities ([5]; 2nd CPA treat) was 0. It also gave a Survivalities ([5]; 2nd CPA treat) of 100%, a Mortalities ([5]; At CLP (day 0)) of 0 and a Survivalities ([5]; At CLP (day 0)) of 100%. The Mortalities ([5]; Day 1) was 2, the Survivalities ([5]; Day 1) was 80% and the Mortalities ([5]; Day 2) was 5. For the same substance, the Survivalities ([5]; Day 2) was 30%, the Mortalities ([5]; Day 3) was 2 and the Survivalities ([5]; Day 3) was 10%. For the same substance, the Mortalities ([5]; Total) was 9 and the Survivalities ([5]; Total) was 10%.

Source: patent publication US9446061B2, “Composition containing antibiotics and lysophosphatidylcholine for boosting immunity or treatment of bacterial infections” (priority 2011, dated 2016)
